Source: patent US20080096903A1, “SULFAMOYL-CONTAINING DERIVATIVES AND USES THEREOF” (Wyeth, priority 2006, published 2008)

Key:
mice = conditions: Takahashi and Bepu, J. Antibiotics 1982; cited from earlier work
Hsp90α Protein = Hsp90α Protein (Homo sapiens, UniProt P07900); assay: Hsp90 CE Competitive Binding Assay (displacement of fluorescein-labelled geldanamycin)
Experimental: Hsp90 CE Competitive Binding Assay: […]
b) “Competitor”, fluorescein-labelled geldanamycin • The competitor was synthesized as described by Llauger-Bufi et al, Bioorg.
The electrophoresis running buffer (RB) is comprised of 200 mM CAPSO, pH 9.2 (pH-adjusted with Trizma base). The sample buffer (SB) is comprised of 10 mM Trizma base, pH 8.0 (pH-adjusted with glacial acetic acid), 5 mM MgCl2, 5 mM DTT, and BSA and Triton as noted.
Capillary electrophoresis was performed on Cetek Gemini Systems™ using laser-induced fluorescence detection. Fused-silica capillaries (50 μm I.D.×30 cm, approximately 10 cm length from end to detection window) were internally coated using Cetek's proprietary methods.
Each sample (i.e., fermentation extract, partially-purified fraction, or compound mixture, or pure compound) to be assayed is prediluted 1:20 or 1:40 in SB containing 0.02% Triton. 1 μl of each prediluted sample is then deposited into a 96-well microtiter plate and mixed with 8 μl of Target Cocktail. These samples can be stored at 4° C. until ready for assay.
When ready for analysis, the plates are transferred to the deck of a Gemini System. To each mixture of sample and target, 1 μl of Competitor Cocktail is added and mixed thoroughly. This reaction mixture is allowed to incubate for 8 minutes on the refrigerated deck of the Gemini System (temperature 8° C.). During incubation, the CE capillary is rinsed for 30 seconds with RB containing 2 mg/ml BSA, and then 60 seconds with RB. At the end of incubation, a small plug of the reaction mixture is then injected into the capillary at low pressure (0.5 psi) for 7 seconds. The loaded capillary is then dipped into reservoirs containing RB and the sample is electrophoresed at 10 kV for 6 minutes at a temperature of 8° C.
The electrophoretic separation produces a graphical profile known as an “electropherogram,” which contains a peak representing the intact complex between Hsp90 and competitor, and a smaller series (typically, a triplet) of peaks representing unbound competitor. […] Dose-response experiments, which evaluate the degree of competitor displacement as a function of sample concentration, are subsequently run in triplicate to validate hits and to quantitate their potencies, which are expressed as IC50 values.
Negative controls are comprised of 0.5% DMSO, and positive controls are comprised of 0.1 μg/ml 17-AAG.

protein synthesis = conditions: literature reports; cited from earlier work
HSP90alpha protein = HSP90alpha protein (Homo sapiens, UniProt P07900); assay: Hsp90alpha and BODIPY-Geldanamycin Fluorescent Polarization Binding Assay; conditions: 5 nM BODIPY GA, 30 nM Hsp90alpha
Experimental: Hsp90alpha and BODIPY-Geldanamycin Fluorescent Polarization Binding Assay Materials • HSP90alpha protein (Stressgen SPP-776) and BODIPY Labeled Geldanamycin (GA) was added to assay buffer stock (stored at 4 C): 20 mM Hepes pH 7.3, 50 mM KCl, 20 mM NaMoO4, 0.01% NP40 • Working Assay buffer: assay buffer stock @RT with freshly added 2 mM DTT and 0.1 mg/ml • Bovine Gamma Globulin (Panvera P2045, 5 mg/ml) • Black 96well micro titer plates (Thermo #7205, vwr# 25227-304) Sample Set-up and Controls • Competitive Binding Samples: 5 nM GA and 30 nM Hsp90alpha and inhibitor • Control Samples: buffer only, BODIPY GA only, BODIPY GA plus Hsp90alpha, BODIPY GA plus • Hsp90alpha and unlabeled GA Protocol 1. Prepare working assay buffer with Hsp90alpha protein at a final concentration of 30 nM per well in 100 ul final volume. Add 85 ul of this solution per well to 96 well black micro titer plate. (for 20 ml assay buffer add 400 ul 1 M DTT stk and 400 ul 5 mg/ml BGG stk) (1 mg/ml Hsp90 stock=˜11 uM protein; want 0.03 uM final in 100 ul, so adjust to 0.035 uM in 85 ul which is 1:314 fold dilution into assay buffer=64 ul protein plus 20 ml buffer to dispense 85 ul/well). 2. Add 5 ul of inhibitors @ 20× final desired concentration. For 10 ug/ml start, the overall dilution from 1 mg/ml stocks is 1:100. […] Use Wallac Envision to read FP using protocol: JENs FP FITC Dual in room 4603. (parameters are: mirror module-FITC FP dual, excitation filter-FITC FP 480, emission filters-FITC FP P-pol 535 and FITC FP S-pol 535) Analysis of Results The Envision instrument automatically prepares a calculation based on the readings it obtains from the two measurements. […] By adjusting G to 0.96 or 0.97, the FP measurement calculation will result in a “0” reading for BODIPY GM without Hsp90. […] IC50s will be determined manually from percent polarization values plotted in Microsoft Excel. […]

Compound	toxicity to mice (mice)	HSP90 inhibition / binding (in words) (Hsp90α Protein)	IC50 (Hsp90α Protein; initial structure activity relationship table, read-out: HSP90 CE IC50)	inhibition of protein synthesis (protein synthesis)	IC50 (HSP90alpha protein)
Nc1nc(Cl)nc2c1ncn2C1OC(COS(N)(=O)=O)C(O)C1O (stereo not shown) [CSA, 2-chloro-5′-sulfamoyladenosine, reference compound]	toxic to mice	inhibits HSP90	1000 nM	inhibit protein synthesis	–
Nc1nc(F)nc2c1nc(Cc1cc3c(cc1I)OCO3)n2Cc1cn(CCOS(N)(=O)=O)nn1 [Example 16A, Sulfamic Acid 2-(4-((6-amino-2-fluoro-8-((6-iodobenzo[d][1,3]dioxol-5-yl)methyl)-9H-purin-9-yl)methyl)-1H-1,2,3-triazol-1-yl)ethyl ester]	–	–	–	–	180 nM
Nc1nc(F)nc2c1nc(Cc1cc3c(cc1I)OCO3)n2Cc1cn(CCCOS(N)(=O)=O)nn1 [Example 16B, Sulfamic Acid 3-[4-({6-amino-2-fluoro-8-[(6-iodo-1,3-benzodioxol-5-yl)methyl]-9H-purin-9-yl}methyl)-1H-1,2,3-triazol-1-yl]propyl ester]	–	–	–	–	390 nM
Nc1nc(F)nc2c1nc(Cc1cc3c(cc1I)OCO3)n2CC#CCN1CCC(OS(N)(=O)=O)C1 (stereo not shown) [Example 160]	–	–	–	–	140 nM
